Test results published in EP0639971B1, “THERAPEUTIC COMBINATIONS” (priority 1992, dated 1993).

Assays:
Assay type in all cases: cell-based
[1] = tested on: HIV; experiment: In vitro passage experiments: acquisition of resistance to oxathiolane nucleosides
[2] = tested on: zidovudine-resistant HIV strain (HIVRTMC) with M184 to V mutation; experiment: Antiviral sensitivity (IC50) of zidovudine-resistant HIV strain with M184 to V mutation introduced; conditions: Human immunodeficiency virus 1
[3] = tested on: zidovudine-resistant HIV strain (HIVRTMC); experiment: Antiviral sensitivity (IC50) of zidovudine-resistant HIV strain; conditions: Human immunodeficiency virus 1; HIVRTMC before introduction of mutation
[4] = tested on: zidovudine-resistant virus with Y181 to C, together with M184 to V; experiment: Antiviral sensitivity (IC50) of zidovudine-resistant HIV strain with Y181 to C and M184 to V mutations introduced
[5] = tested on: HIV-1 population containing four mutations in the HIV-RT which confer zidovudine resistance; experiment: Passage of zidovudine-resistant HIV-1 in cell culture with increasing concentrations of Chloro-TIBO; antiviral sensitivity (IC50)

| SMILES | acquisition of resistance by HIV [1] | IC50 [2] [nM] | IC50 [3] [nM] | sensitivity / resistance of the resulting mutant virus strain [4] | IC50 ([4]; Human immunodeficiency virus 1) [nM] | IC50 ([5]; Human immunodeficiency virus 1, after five passages with Chloro-TIBO) [nM] | IC50 ([5]; Human immunodeficiency virus 1, before passage with Chloro-TIBO) [nM] | increase of sensitivity of the virus population to zidovudine ([5]; after five passages with increasing concentrations of Chloro-TIBO) |
| --- | --- | --- | --- | --- | --- | --- | --- | --- |
| Nc1ccn([C@H]2CS[C@@H](CO)O2)c(=O)n1 [3TC, (-)-2',3'-dideoxy-3'-thiacytidine] | rapid resistance | – | – | – | – | – | – | – |
| Nc1nc(=O)n([C@@H]2CS[C@H](CO)O2)cc1F [FTC, (-)-2'3'-dideoxy-5-fluoro-3'-thiacytidine] | rapid resistance | > 500000 | 640 | – | – | – | – | – |
| Cc1cn([C@H]2C[C@H](N=[N+]=[N-])[C@@H](CO)O2)c(=O)[nH]c1=O [zidovudine, 3'-azido-3'-deoxythymidine] | – | 170 | 1260 | completely sensitive | 40 | < 100 | ~2000 | about twenty fold |
